According to US9999221B2, “Herbicide combination containing pelargonic acid and defined ALS inhibitors” (BAYER CROPSCIENCE AKTIENGESELLSCHAFT, priority 2013, dated 2018):

Experiments:
Experiment in all cases: Post-emergence test, % damage
Assay type in all cases: in vivo
Conditions in all cases: after 48 days
Chenopodium album = test system: Chenopodium album
Description: (§1) After 48 days, the degree of damage to the plants is rated in % damage in comparison to the development of the untreated control.

Festuca ovina = test system: Festuca ovina
Description: as §1

Plantago major = test system: Plantago major
Description: as §1

Poa annua = test system: Poa annua
Description: as §1

Trifolium repens = test system: Trifolium repens
Description: as §1

Taraxacum officinale = test system: Taraxacum officinale
Description: as §1

[1] = Iodosulfuron-methyl 1 g of active compound/ha
[2] = Iodosulfuron-methyl 1.25 g of active compound/ha
[3] = Iodosulfuron-methyl 2.5 g of active compound/ha
[4] = Iodosulfuron-methyl 10 g of active compound/ha
[5] = Pelargonic acid 10000 g of active compound/ha
[6] = Pelargonic acid 20000 g of active compound/ha
[7] = Pelargonic acid 30000 g of active compound/ha

4-iodo-2-[(4-methoxy-6-methyl-1,3,5-triazin-2-yl)carbamoylsulfamoyl]benzoate, sodium salt [Iodosulfuron-methyl]
herbicidal effect [%] (Chenopodium album; [1]): 0%
herbicidal effect [%] (Chenopodium album; [2]): 0%
herbicidal effect [%] (Chenopodium album; [3]): 10%
herbicidal effect [%] (Chenopodium album; [4]): 40%
herbicidal effect [%] (Festuca ovina; [1]): 0%
herbicidal effect [%] (Festuca ovina; [2]): 0%
herbicidal effect [%] (Festuca ovina; [3]): 0%
herbicidal effect [%] (Festuca ovina; [4]): 6.7%
herbicidal effect [%] (Plantago major; [1]): 0%
herbicidal effect [%] (Plantago major; [2]): 3%
herbicidal effect [%] (Plantago major; [3]): 30%
herbicidal effect [%] (Plantago major; [4]): 53.3%
herbicidal effect [%] (Poa annua; [1]): 0%
herbicidal effect [%] (Poa annua; [2]): 0%
herbicidal effect [%] (Poa annua; [3]): 0%
herbicidal effect [%] (Poa annua; [4]): 0%
herbicidal effect [%] (Trifolium repens; [1]): 18.3%
herbicidal effect [%] (Trifolium repens; [2]): 32%
herbicidal effect [%] (Trifolium repens; [3]): 45%
herbicidal effect [%] (Trifolium repens; [4]): 80%
herbicidal effect [%] (Taraxacum officinale; [1]): 18.3%
herbicidal effect [%] (Taraxacum officinale; [2]): 18%
herbicidal effect [%] (Taraxacum officinale; [3]): 42%
herbicidal effect [%] (Taraxacum officinale; [4]): 85%

CCCCCCCCC(=O)O [Pelargonic acid, nonanoic acid]
herbicidal effect [%] (Chenopodium album; [5]): 0%
herbicidal effect [%] (Chenopodium album; [6]): 10%
herbicidal effect [%] (Chenopodium album; [7]): 20%
herbicidal effect [%] (Festuca ovina; [5]): 0%
herbicidal effect [%] (Festuca ovina; [6]): 0%
herbicidal effect [%] (Festuca ovina; [7]): 6.7%
herbicidal effect [%] (Plantago major; [5]): 0%
herbicidal effect [%] (Plantago major; [6]): 0%
herbicidal effect [%] (Plantago major; [7]): 13.3%
herbicidal effect [%] (Poa annua; [5]): 0%
herbicidal effect [%] (Poa annua; [6]): 0%
herbicidal effect [%] (Poa annua; [7]): 0%
herbicidal effect [%] (Trifolium repens; [5]): 0%
herbicidal effect [%] (Trifolium repens; [6]): 0%
herbicidal effect [%] (Trifolium repens; [7]): 3.3%
herbicidal effect [%] (Taraxacum officinale; [5]): 6.7%
herbicidal effect [%] (Taraxacum officinale; [6]): 7%
herbicidal effect [%] (Taraxacum officinale; [7]): 20%
